From patent publication US20220304945A1, “METHODS OF TREATING METABOLIC SYNDROME RELATED CONDITIONS USING RETINOIC ACID RECEPTOR AGONISTS” (Cornell University, priority 2014, published 2022)
Entries after “also recorded” stand apart in the source; their conditions may differ.

Experiments:
[1] = system: c-peptide; assay: c-peptide/glucagon immunofluorescence of pancreatic islets, HF-fed mice; assay type: in vivo, mouse; details: HF diet mice 4 months; vs HF diet
Procedure: Indirect Immunofluorescence. Immunofluorescence assays on cells and tissue sections were performed as previously described (29). Briefly, differentiated samples were fixed using 4% (w/v) paraformaldehyde and membrane permeabilization (for cells only) was done with 0.3% (w/v) Triton-X 100 (Sigma). Unspecific sites were blocked using 2% BSA for 30 min prior to incubation with rabbit polyclonal anti-PDX1 (Millipore, 06-1379, 1:1000), rabbit anti-C-Peptide (Cell Signaling, 4593, 1:500, Danvers, Mass.) and mouse monoclonal anti-Glucagon (Abcam, ab10988, 1:200) primary antibodies. Phalloidin-TRITC (Millipore, FAK100, 1:1000, Billerica, Mass.) was used to stain the actin stress fiber network (F-actin). Nuclei were stained using DAPI contained in Vectashield® mounting medium for fluorescence (Vector labs, Burlingame, Calif.). Quantitation of C-peptide positive stained cells and islet surface area was performed using NIS-Elements Advanced Research software (Nikon).
Mice, diet, and drug treatment. WT male C57/BL6 male mice were maintained on either a standard laboratory chow-fed diet (CFD) with 13% kcal fat, (diet #5053, Lab Diet, Inc, St. Louis, Mo.) or a high fat, western style diet (HFD) with 60% kcals from fat, (diet #58126, Lab Diet, Inc., St. Louis, Mo.) for 4 months. […]

[2] = system: α-SMA; assay: α-SMA immunofluorescence of kidney, HF-fed mice; assay type: in vivo, mouse; details: HF diet mice 4 months
From the text: Mice, diet, and drug treatment. WT male C57/BL6 male mice were maintained on either a standard laboratory chow-fed diet (CFD) with 13% kcal fat, (diet #5053, Lab Diet, Inc, St. Louis, Mo.) or a high fat, western style diet (HFD) with 60% kcals from fat, (diet #58126, Lab Diet, Inc., St. Louis, Mo.) for 4 months. One month after the start of the high fat diet treatment, the high fat diet group was further split into 2 groups for 3 months: i) high fat diet and the drinking water containing 1% DMSO; ii) high fat diet and the drinking water containing 1.5 mg/100 ml AC261066, a specific RARβ agonist. Then mice were sacrificed by cervical dislocation. Blood and various tissue samples were harvested.
Combined oil red O and Immunofluorescence staining. Fresh mouse kidney samples were embedded in optimal cutting temperature (OCT) medium and immediately frozen to −70 centigrade. Cryosections were then fixed in 4% formaldehyde for 1 hr at room temp. Slides were then rinsed three times in deionized water (dH2O) for 30 s, followed by treatment with 0.5% Triton X-100 in PBS for 5 min. Sections were then washed three times with PBS for 5 min. Samples were with incubated 2% bovine serum albumin (BSA) for 30 min at room temperature to block for unspecific antibody binding. […]

[3] = system: SREBP1, FASN, PPAR-α, CPT1-α, MCP-1, TNF-α, α-SMA mRNA; assay: PCR of kidney genes of lipid metabolism, inflammation and fibrosis in HFD, Ob/Ob and Db/Db mice (Example 23); assay type: in vivo, mouse
Procedure: Quantitative RT-PCR (Q-PCR)-Q-PCR was performed using SYBR Green PCR master mix on a Bio-Rad MyiQ2 Real Time PCR iCycler (Bio-Rad, Inc. Hercules, Calif.). Gene specific primers (Table 5) were used to amplify mRNA target genes, which were normalized to Hprt internal control genes. cDNA from 3-5 mice per experimental group was analyzed for relative mRNA fold changes, calculated using the Pfaffl method (Pfaffl M W, A new mathematical model for relative quantification in real-time RT-PCR, Nucleic Acids Res. 2001 May 1; 29(9):e45). Relative gene expression values are reported as mean±standard error of the mean (S.E.M) and P-values calculated using one-way analysis of variance followed by Bonferroni multiple comparison test post-hoc analysis.
Diabetic kidney disease (aka diabetic nephropathy (DN)) frequently occurs in individuals with type 2 diabetes. The causes of DN are unclear but insulin resistance, hyperlipidemia and obesity are implicated because these states can impair renal lipid metabolism leading to the accumulation of free fatty acids (FFA), which can promote renal inflammation, fibrosis and impaired kidney function. There is evidence that transcriptions factors involved in de novo lipid synthesis such as srebpl contribute to the pathogenesis of DN. […] HF-fed mice treated with AC261066 had no increase in mRNA transcripts of SREBP1 and FASN (FIG. 33A).
We also measured kidney mRNA levels of pro-inflammatory and fibrogenic mediators MCP-1 (aka CCL2), TNF-α, and α-SMA in HFD-fed mice and two genetic mouse models of obesity and diabetes, Ob/Ob and Db/Db mice. MCP-1, TNF-α, and α-SMA are implicated in inflammation and fibrosis in DN and expression of these genes are frequently elevated in models of DN. […] Kidney mRNA transcripts of α-SMA, which contributes to DN fibrosis, was increased 5-6 fold in HFD Ob/Ob and Db/Db mice compared to wt con (FIG. 33D). HFD Ob/Ob and Db/Db mice treated AC261066 had 40-50% reductions in a-SMA transcripts compared to their respective HFD and genetic controls (FIG. 33D).

[4] = target: T1, RARβ2 (Homo sapiens, UniProt P10826); details: as described in Lund et al. 2005; cited from earlier work
T1 sequence (P10826 1-448 isoform P10826-2): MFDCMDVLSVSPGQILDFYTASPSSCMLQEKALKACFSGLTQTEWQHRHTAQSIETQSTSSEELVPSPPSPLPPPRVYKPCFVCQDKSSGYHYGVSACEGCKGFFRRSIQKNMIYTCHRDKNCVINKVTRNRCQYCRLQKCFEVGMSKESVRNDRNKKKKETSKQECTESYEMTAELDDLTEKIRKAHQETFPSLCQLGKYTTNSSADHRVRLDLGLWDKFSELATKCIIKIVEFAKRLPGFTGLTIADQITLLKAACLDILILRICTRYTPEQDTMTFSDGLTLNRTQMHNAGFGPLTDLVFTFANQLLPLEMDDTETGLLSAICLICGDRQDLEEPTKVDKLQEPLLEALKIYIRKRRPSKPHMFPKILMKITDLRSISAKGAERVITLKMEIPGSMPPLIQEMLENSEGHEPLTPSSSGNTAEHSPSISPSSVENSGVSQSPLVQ

[5] = HFD, Ob/Ob and Db/Db mice vs respective untreated

## CCCCOCCOc1nc(-c2ccc(C(=O)O)c(F)c2)sc1C [AC261066]
[1]
  c-peptide level in pancreatic islets: slightly reduces; also recorded: slightly decreased
[2]
  α-SMA positive areas in kidney: diminished; also recorded: not observed
[3]; HF-fed mice
  kidney mRNA transcripts of PPAR-α and CPT1-α, increase vs HFD-fed mice: approximately 2 fold
  kidney mRNA transcripts of SREBP1 and FASN: no increase
[3]; HFD, Ob/Ob and Db/Db mice vs respective controls
  reduction in kidney α-SMA transcripts: 40-50%
[3]; [5]
  reduction in kidney mRNA transcripts of MCP-1: 40-50%
  reduction in kidney mRNA transcripts of TNF-α: 40-50%
[4]
  isoform selectivity for the human RARβ2 receptors: highly isoform-selective agonists
